Experiments:
[1] = target: Glutamate receptor ionotropic kainate (Homo sapiens) (UniProt P39086+Q16478+Q16099+Q13002+Q13003); assay: Inhibition of kainate receptor at 10 uM; format: protein-complex assay
[2] = target: Opioid receptors; mu/kappa/delta (Homo sapiens) (UniProt P41145+P41143+P35372); assay: Inhibition of non selective binding to opiate receptor at 100 nM; format: protein assay
[3] = target: L-type calcium channel, dihydropyridine site (Homo sapiens, UniProt O60840+Q01668+Q13698+Q13936); assay: Inhibitory activity at dihydropyridine site of Calcium channel L type at 1 nM; format: protein assay
[4] = target: Voltage-dependent N-type calcium channel subunit alpha-1B (Homo sapiens) (UniProt Q00975); assay: Inhibitory activity at Calcium channel N type at 100 nM
Voltage-dependent N-type calcium channel subunit alpha-1B (Homo sapiens), sequence (Q00975 whole entry, looked up): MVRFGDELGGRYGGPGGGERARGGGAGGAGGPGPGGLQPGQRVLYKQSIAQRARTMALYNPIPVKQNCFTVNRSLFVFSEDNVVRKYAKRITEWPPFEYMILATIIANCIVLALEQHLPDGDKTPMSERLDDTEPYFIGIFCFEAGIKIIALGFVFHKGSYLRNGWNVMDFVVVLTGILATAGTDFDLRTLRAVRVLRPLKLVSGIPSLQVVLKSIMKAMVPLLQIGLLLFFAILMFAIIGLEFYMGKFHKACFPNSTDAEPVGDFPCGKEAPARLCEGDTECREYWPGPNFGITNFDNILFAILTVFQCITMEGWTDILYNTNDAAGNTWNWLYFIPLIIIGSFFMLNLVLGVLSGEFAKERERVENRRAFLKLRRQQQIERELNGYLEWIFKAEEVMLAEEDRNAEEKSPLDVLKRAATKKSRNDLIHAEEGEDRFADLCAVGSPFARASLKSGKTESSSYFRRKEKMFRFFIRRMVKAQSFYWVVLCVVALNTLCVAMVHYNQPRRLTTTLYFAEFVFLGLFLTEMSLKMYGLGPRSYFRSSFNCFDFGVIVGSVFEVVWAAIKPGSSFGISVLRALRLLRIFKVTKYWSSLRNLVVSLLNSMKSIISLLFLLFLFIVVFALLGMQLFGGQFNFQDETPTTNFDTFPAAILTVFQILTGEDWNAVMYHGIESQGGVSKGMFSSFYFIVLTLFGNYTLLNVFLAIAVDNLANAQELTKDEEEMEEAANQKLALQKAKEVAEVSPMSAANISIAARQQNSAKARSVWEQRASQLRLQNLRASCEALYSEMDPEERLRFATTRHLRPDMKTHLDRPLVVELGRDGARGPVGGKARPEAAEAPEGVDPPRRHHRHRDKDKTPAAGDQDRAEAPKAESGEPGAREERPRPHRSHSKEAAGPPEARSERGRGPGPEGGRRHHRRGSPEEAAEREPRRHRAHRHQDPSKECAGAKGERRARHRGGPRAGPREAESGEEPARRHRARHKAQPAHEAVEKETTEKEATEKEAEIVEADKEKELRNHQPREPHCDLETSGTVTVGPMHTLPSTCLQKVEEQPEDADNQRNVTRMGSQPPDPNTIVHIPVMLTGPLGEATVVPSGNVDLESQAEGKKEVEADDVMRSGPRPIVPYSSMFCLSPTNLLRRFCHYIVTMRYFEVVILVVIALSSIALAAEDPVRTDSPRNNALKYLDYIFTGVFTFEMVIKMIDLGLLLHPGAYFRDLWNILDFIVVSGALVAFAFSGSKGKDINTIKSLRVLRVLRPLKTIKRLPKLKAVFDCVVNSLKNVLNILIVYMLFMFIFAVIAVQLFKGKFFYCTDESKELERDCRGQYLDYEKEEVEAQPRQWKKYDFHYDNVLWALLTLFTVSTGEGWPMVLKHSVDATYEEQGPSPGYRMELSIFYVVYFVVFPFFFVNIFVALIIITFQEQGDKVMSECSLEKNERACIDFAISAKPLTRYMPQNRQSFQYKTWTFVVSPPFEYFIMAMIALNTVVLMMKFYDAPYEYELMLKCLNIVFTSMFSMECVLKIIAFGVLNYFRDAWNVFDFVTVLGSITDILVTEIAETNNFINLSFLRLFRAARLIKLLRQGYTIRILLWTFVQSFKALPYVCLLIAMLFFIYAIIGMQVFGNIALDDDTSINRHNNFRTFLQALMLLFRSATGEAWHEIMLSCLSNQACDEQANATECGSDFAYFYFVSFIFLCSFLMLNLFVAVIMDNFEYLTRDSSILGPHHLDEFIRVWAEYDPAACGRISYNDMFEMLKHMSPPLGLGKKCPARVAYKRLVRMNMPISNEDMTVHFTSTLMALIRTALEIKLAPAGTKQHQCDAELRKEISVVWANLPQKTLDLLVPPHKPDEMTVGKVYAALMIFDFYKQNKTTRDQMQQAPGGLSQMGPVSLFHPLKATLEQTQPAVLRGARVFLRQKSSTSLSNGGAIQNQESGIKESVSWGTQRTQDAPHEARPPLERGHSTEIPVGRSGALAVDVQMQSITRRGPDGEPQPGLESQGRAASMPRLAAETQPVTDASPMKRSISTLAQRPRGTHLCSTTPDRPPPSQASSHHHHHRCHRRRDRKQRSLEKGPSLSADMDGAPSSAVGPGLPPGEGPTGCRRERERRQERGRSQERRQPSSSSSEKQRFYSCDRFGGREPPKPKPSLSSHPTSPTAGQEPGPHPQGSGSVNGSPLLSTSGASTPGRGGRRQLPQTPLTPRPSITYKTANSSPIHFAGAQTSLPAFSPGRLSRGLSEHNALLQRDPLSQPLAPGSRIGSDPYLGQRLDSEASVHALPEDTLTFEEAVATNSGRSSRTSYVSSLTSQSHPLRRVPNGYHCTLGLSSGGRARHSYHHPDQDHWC

[5] = target: Protein kinase C, PKC; classical/novel (Homo sapiens) (UniProt O94806+P17252+P05129+Q05655+P05771+Q02156+P24723+Q15139+Q04759); assay: Inhibition of PDBu activated protein kinase C at 10 uM; format: protein assay
[6] = target: T1, Atrial natriuretic peptide receptor 1 (Homo sapiens) (UniProt P16066); assay: Inhibition of ANP A at 1 nM
T1 sequence (whole entry): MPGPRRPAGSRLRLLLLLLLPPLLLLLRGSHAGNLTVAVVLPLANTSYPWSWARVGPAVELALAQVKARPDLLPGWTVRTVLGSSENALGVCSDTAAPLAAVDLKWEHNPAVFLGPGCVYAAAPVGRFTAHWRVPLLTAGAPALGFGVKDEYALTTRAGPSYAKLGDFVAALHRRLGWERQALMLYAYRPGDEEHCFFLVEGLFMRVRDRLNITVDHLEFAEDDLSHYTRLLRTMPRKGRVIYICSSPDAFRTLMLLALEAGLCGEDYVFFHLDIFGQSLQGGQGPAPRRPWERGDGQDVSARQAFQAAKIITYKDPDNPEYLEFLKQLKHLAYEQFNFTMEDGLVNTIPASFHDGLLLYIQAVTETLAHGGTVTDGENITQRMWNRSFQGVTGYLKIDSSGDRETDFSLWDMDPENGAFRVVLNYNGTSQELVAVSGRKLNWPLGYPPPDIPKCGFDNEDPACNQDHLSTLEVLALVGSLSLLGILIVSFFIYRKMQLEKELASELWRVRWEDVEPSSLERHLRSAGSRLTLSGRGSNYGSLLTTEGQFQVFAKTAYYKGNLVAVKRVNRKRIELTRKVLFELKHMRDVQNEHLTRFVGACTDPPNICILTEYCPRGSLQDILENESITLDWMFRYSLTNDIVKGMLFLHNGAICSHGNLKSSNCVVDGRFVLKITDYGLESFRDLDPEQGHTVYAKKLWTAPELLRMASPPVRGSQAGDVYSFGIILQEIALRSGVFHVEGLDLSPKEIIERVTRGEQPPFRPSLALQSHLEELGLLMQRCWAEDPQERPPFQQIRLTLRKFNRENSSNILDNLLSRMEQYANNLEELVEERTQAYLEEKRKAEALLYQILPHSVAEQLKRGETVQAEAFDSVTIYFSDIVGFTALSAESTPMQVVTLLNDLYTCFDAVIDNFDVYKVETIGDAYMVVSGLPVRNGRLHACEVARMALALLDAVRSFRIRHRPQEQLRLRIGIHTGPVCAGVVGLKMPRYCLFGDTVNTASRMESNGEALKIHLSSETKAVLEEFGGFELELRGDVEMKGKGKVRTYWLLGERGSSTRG

[7] = target: T2, Endothelin-1 receptor (Homo sapiens) (UniProt P25101); assay: Inhibition of human recombinant endothelin 1 receptor 1 nM
T2 sequence (whole entry): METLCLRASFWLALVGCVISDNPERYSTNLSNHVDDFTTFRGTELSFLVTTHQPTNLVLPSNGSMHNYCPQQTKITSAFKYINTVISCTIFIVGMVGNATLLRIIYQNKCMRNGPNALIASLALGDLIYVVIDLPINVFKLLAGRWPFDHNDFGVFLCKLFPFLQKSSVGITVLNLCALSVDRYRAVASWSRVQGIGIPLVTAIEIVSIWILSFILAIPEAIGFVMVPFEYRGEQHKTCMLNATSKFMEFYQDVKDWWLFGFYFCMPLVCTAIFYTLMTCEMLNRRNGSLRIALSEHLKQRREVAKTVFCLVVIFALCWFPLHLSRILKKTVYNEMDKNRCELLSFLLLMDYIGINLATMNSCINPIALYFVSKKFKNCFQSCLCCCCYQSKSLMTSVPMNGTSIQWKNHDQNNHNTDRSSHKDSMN

[8] = target: T3, Alpha-2A adrenergic receptor (Homo sapiens, UniProt P08913); assay: Displacement of [3H]clonidine from cloned human adrenergic alpha2A receptor expressed in Sf9 cells
T3 sequence (P08913 whole entry): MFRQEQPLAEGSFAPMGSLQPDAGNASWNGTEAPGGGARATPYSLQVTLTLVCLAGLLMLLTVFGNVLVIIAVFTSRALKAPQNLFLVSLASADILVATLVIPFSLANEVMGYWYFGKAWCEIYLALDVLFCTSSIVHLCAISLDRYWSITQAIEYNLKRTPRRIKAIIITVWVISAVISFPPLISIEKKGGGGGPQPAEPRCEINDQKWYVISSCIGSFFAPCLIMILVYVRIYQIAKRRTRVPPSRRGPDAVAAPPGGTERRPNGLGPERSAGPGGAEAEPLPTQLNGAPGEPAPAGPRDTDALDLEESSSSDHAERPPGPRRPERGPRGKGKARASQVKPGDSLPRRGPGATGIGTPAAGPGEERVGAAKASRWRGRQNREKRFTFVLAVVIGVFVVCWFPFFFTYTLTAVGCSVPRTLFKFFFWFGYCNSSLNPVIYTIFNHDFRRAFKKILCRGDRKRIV

[9] = target: T4, 5-hydroxytryptamine receptor 1A (Homo sapiens, UniProt P08908); assay: Agonistic activity at cloned human 5HT1A receptor expressed in CHO cells by inhibition of forskolin-induced cAMP production; format: functional, cell-based
T4 sequence (P08908 whole entry): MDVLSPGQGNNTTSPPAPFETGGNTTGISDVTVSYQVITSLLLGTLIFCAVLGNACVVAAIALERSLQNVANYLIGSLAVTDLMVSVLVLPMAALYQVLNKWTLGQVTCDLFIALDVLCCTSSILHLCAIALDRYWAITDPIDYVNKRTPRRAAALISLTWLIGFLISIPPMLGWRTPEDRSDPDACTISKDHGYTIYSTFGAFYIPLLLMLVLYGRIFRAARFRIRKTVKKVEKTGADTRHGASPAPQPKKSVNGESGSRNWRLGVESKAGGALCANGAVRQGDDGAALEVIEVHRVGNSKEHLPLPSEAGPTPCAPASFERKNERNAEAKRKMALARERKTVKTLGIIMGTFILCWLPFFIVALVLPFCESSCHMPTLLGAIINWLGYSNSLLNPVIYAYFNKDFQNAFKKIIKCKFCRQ

[10] = target: Alpha-2B adrenergic receptor (Homo sapiens, UniProt P18089); assay: Activity at adrenergic alpha-2B receptor expressed in opposum kidney OK cell by adenylyl cyclase assay; format: functional, cell-based
Alpha-2B adrenergic receptor, sequence (P18089 whole entry): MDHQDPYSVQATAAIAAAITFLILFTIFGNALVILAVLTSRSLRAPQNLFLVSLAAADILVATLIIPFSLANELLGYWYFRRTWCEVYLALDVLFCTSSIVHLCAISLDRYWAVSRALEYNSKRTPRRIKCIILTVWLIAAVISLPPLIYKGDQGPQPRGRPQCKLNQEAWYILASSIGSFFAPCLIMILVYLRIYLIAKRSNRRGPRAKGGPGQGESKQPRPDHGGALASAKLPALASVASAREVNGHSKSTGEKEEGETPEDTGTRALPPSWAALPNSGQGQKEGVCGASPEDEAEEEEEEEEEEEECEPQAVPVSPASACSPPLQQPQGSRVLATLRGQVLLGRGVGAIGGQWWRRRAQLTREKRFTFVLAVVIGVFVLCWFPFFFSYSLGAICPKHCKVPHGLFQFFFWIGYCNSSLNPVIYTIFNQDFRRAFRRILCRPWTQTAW

[11] = Distribution coefficient at pH 7.4; format: physicochemical; settings: octanol/water
MDR1 (P-gp) = assay: Permeability from apical to basolateral side of the MDCK cell transfected with human MDR1; format: ADME, cell-based

Opioid receptors; mu/kappa/delta (Homo sapiens), sequence (P35372 whole entry, looked up): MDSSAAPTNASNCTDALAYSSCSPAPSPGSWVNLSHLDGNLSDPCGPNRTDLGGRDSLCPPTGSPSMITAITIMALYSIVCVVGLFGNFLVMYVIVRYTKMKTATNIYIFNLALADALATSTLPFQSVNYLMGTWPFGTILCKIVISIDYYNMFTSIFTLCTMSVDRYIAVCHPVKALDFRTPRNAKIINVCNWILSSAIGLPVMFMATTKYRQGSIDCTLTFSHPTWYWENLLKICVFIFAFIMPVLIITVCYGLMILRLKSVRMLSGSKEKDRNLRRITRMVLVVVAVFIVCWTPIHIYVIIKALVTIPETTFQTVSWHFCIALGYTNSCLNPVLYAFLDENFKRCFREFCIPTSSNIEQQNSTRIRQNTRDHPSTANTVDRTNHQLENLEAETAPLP
Opioid receptors; mu/kappa/delta (Homo sapiens), sequence (P41143 whole entry, looked up): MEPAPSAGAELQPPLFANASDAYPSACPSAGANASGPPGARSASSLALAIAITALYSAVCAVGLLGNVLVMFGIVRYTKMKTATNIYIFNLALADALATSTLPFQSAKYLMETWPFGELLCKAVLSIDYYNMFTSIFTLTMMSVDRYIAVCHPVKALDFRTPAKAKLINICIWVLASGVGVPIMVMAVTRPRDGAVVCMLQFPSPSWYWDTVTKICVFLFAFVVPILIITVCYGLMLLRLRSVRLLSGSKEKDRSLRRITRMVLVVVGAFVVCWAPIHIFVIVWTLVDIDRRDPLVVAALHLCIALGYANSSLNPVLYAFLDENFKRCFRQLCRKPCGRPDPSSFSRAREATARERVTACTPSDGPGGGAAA
Opioid receptors; mu/kappa/delta (Homo sapiens), sequence (P41145 whole entry, looked up): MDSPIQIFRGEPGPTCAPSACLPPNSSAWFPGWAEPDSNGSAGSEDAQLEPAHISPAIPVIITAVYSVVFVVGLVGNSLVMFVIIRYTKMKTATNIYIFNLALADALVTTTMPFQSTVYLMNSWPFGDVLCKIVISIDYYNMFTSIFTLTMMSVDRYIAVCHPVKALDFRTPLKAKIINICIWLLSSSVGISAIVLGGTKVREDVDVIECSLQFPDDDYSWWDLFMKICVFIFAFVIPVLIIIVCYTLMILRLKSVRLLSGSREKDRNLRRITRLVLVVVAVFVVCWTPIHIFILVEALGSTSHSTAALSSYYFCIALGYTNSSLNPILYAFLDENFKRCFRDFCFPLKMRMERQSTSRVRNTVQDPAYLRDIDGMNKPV

With C[C@H](N)Cn1ncc2ccc(O)cc21 as the molecule, how does the inhibition [1] read?
Its inhibition is 6.62%.

And the inhibition [2]?
Its inhibition is -2.14%.

And the inhibition at 0.001 µM [3]?
Its inhibition at 0.001 µM is 2.17%.

And the inhibition [4]?
Its inhibition is 2.01%.

And the inhibition [5]?
Its inhibition is 22.8%.

And the inhibition [6]?
The inhibition was -5.65%.

And the inhibition [7]?
The inhibition was 2.41%.

What about the Ki [8] of the same molecule?
Its Ki is 2270 nM.

What about the EC50 [9] of the same molecule?
The EC50 was 1460 nM.

And the EC50 [10]?
Its EC50 is 3.05 µM.

And the logD [11]?
The logD was 0.693.

What about the Papp A→B (MDR1 (P-gp)) of the same molecule?
Its Papp A→B is 0.76 ×10⁻⁶ cm/s.

From ChEMBL document CHEMBL1148572, “1-((S)-2-aminopropyl)-1H-indazol-6-ol: a potent peripherally acting 5-HT2 receptor agonist with ocular hypotensive activity” (J Med Chem, 2006)
